Assay results from paper PMC7504435, “Combined Protein- and Ligand-Observed NMR Workflow to Screen Fragment Cocktails against Multiple Proteins: A Case Study Using Bromodomains” (Molecules, 2020).
Where “and” joins values, the source holds several entries; their conditions need not be identical. Equal entries are not always repeated.

Columns and labels:
BPTF bromodomain [1] = molecular target: T1, BPTF bromodomain (Homo sapiens, UniProt Q12830); test: PrOF NMR (dual-protein screen of mixtures, titrations) with 5FW-BPTF; format: binding; design: against the bromodomains of BPTF and Plasmodium falciparum GCN5 (PfGCN5); his6; made in house; settings: hit mixture containing the fragment, 400 µM each fragment
Experimental: (§1) The screening workflow consists of two dependent steps: 1) a PrOF NMR screen of the 5FW-labeled proteins and a cocktail of 4–5 fragments in a single NMR tube; 2) a ^1H CPMG NMR binding assay to deconvolute the hit mixtures for each protein (Figure 1). In the first step, a dual-protein PrOF NMR spectrum was obtained in which 5FW-PfGCN5, 5FW-BPTF (~ 50 µM each) and mixtures of fragments (400 µM individual fragment) were present in the same NMR tube. […] Chemical shift perturbations indicating a ligand binding event were based on a prior cutoff of Δδ ≥ 0.030 ppm as the definition for a hit mixture. This cutoff was based on a statistical analysis of chemical shift perturbations from a prior BRD4 D1 fragment screen and are described further in the experimental section and in Table S2.
(§2) PrOF NMR. PrOF NMR spectra were obtained on a Bruker Avance III HD 500 with the 5 mm Prodigy TCI inverse cryoprobe (^19F S:N 2000:1). […] The DMSO concentration for all experiments was kept constant at 1%. […] For the PrOF NMR screen, 5FW-BPTF and 5FW-PfGCN5 (35–40 µM in 50 mM phosphate, 100 mM NaCl, pH 7.4) were tested with mixtures of 4–5 fragments, where each individual fragment was 400 µM. […] A 10 Hz line broadening was applied. Titrations were fit to Equation (2), where p is the protein concentration and L is the ligand concentration. (2) Δδ=Δδmax × (Kd+P+L ) − (((Kd + P + L )^2) − 4PL)/2P
(§3) A PrOF NMR binding event is characterized as a change in chemical shift (Δδ) from the protein-only spectrum to the protein + fragment mixture spectrum. We used a prior cutoff of Δδ ≥ 0.030 ppm as the definition of a hit mixture, based on a statistical analysis of chemical shift perturbations from a prior BRD4 D1 fragment screen.

BRD4 D1 = settings: data from previous screen; cited from earlier work
PfGCN5 bromodomain [2] = molecular target: T2, PfGCN5 bromodomain (Plasmodium falciparum, UniProt Q8IB67); test: 1H-15N HSQC NMR titration with PfGCN5; format: binding
T2 sequence (Q8IB67 entry or part of it): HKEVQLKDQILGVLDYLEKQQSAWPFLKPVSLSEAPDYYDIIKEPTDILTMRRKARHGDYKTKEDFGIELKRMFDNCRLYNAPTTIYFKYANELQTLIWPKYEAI
Description: To cross-validate our findings, ^1H-^15N HSQC NMR was used to further examine the binding mode of 9 to PfGCN5 in the presence and absence of known ligands. The ^1H-^15N HSQC spectrum of PfGCN5 is unassigned. For ease of spectral interpretation, all resonances that were distinctly visible were assigned as 1-64. Fragment 9, GSK4027, and the acetylated peptide H2A.Z II K7,13ac were titrated against PfGCN5. At the highest ligand concentration, resonances with Δδ > x^− + 0.60*s, where x^− is the mean and s is the standard deviation at the highest concentration, were defined as significant. The correction factor of 0.60 is to compensate for only 60% of the resonances being usable for analysis. Titration of 9 with PfGCN5 gave linear and non-linear dose-dependent chemical shift perturbations. Of the five resonances with non-linear movement, only one (10) was considered to have significant movement. […] This affinity with the non-fluorine-labeled protein is similar but higher than the affinity determined by PrOF NMR. […]
^1H-^15N SOFAST HSQC.^1H-^15N SOFAST HSQC spectra were obtained on a Bruker 600 MHz Avance NEO with a CryoProbe 5 mm TCI (^1H, ^13C, ^15N, ^2H) w/ Z-gradient using Bruker’s IBS_SOFAST.x method with 32 scans, 0.05 s acquisition time, and 0.2 s delay. […] Data were processed with nmrDraw, nmrPipe, and NFRAM Sparky. Δδ^1H-^15N was calculated using Equation (3). […]

PfGCN5 bromodomain [3] = molecular target: T2, PfGCN5 bromodomain; test: biochemical; format: binding
Experimental: as §1, §2, §3

BPTF bromodomain [4] = molecular target: T1, BPTF bromodomain; design: against the bromodomains of BPTF and Plasmodium falciparum GCN5 (PfGCN5); his6; made in house; settings: cited from earlier work
PfGCN5 bromodomain [5] = molecular target: T2, PfGCN5 bromodomain; test: Competition 1H CPMG NMR with PfGCN5; format: binding
Description: The competition ^1H CPMG NMR and PrOF NMR assays were employed to further probe the binding mode of 9 to PfGCN5. […] At high concentrations, at or above the protein concentration, the competition maxed out at ~ 50% (Figure 2, Figure S10, Table S5). Conversely, TP-238 was able to compete 9 off from BPTF at low concentrations.
^1H CPMG NMR. ^1H CPMG NMR screen data were acquired on Bruker Avance III HD 500 with the 5 mm Prodigy TCI cryoprobe inverse cryoprobe (^1H 2500:1 S/N). Competition ^1H CPMG NMR data were acquired on Bruker 700 MHz Avance with a CryoProbe 5 mm TXI (^1H S:N with H2O suppression (2mM sucrose) - 900:1) and excitation sculpting water suppression. Proteins were present at 10 µM in 50 mM phosphate, 100 mM NaCl, pH 7.4 in 100% D2O. In separate NMR tubes, a ^1H CPMG NMR pulse was applied to a 1) mixture of ligands (individual ligands present at 100 µM for the screen and 50 µM for competition experiments) and 2) ligands + protein. For competition experiments, the ligands were used individually, and the competitor ligands were spiked into tube 2. ^1H CPMG NMR parameters for the screen: NS = 128, acquisition time = 2 s, τ = 2.5 ms, and L = 120. For the competition experiments, τ was increased to 4.0 ms.

Q: For `Nc1ccc2c(c1)N(C(=O)C1CC1)CCC2` [Fragment 9], which “Initial Mixture BPTF PrOF NMR Δδ” value (BPTF bromodomain [1]) is on record?
A: The value was “++++ (++++ = Δδ > 0.2)”.

Q: What about the Kd (BRD4 D1) of the same compound?
A: Its Kd is 50 µM.

Q: And the Kd (PfGCN5 bromodomain [2])?
A: The Kd was 7.5 µM.

Q: What about the “ligand efficiency (LE)” value (PfGCN5 bromodomain [3]; PfGCN5, from Kd = 16 µM) of the same compound?
A: The value was 0.43.

Q: What about the Kd (PfGCN5 bromodomain [3]; PfGCN5 Kd, PrOF NMR titration, for 9 average of W1454 and W1379, NS = non-saturating) of the same compound?
A: The Kd was 17 µM and 16 µM.

Q: And the “Initial Mixture PfGCN5 PrOF NMR Δδ” value (PfGCN5 bromodomain [3]; hit mixture containing the fragment, 400 µM each fragment)?
A: The value was “++++ (++++ = Δδ > 0.2)”.

Q: What about the “selectivity, binds PfGCN5 over BPTF” value (PfGCN5 bromodomain [3]; ratio of Kd values) of the same compound?
A: The value was 9 fold.

Q: And the “single-point PrOF NMR Δδ with BPTF” value (BPTF bromodomain [4]; 400 µM 9, previous screen)?
A: Its value is 0.453 ppm.

Q: What about the Kd (BPTF bromodomain [4]; via PrOF NMR) of the same compound?
A: The Kd was 180 µM.

Q: What about the “% drop PfGCN5” value (PfGCN5 bromodomain [5]; resonance of 9 at 2.6884 ppm, GSK series) of the same compound?
A: Its value is 72%.

Q: What about the “% drop PfGCN5” value (PfGCN5 bromodomain [5]; resonance of 9 at 2.6884 ppm, L-Moses series) of the same compound?
A: Its value is 83%.

Q: And the “% drop PfGCN5” value (PfGCN5 bromodomain [5]; resonance of 9 at 6.98 ppm, GSK series)?
A: The value was 71%.

Q: And the “% drop PfGCN5” value (PfGCN5 bromodomain [5]; resonance of 9 at 6.98 ppm, L-Moses series)?
A: The value was 75%.
